Results from patent publication US5488051A, “Substituted 5,6-dihydro-5-oxo-1,4-dithiino-(2,3-d)-pyridazine-2,3-dicarbonitriles, compositions containing them and their use as antimicrobials” (The Dow Chemical Company, priority 1994, dated 1996).
In brackets after ≈: the same amount, converted by molar mass. Read-outs that look alike come from different tables or passages of the source.

Columns and labels:
[1] = tested on: Trichoderma viride (Tv); test: MIC for Trichoderma viride, malt yeast agar; type: cell-based, Trichoderma viride ATCC 8678; conditions: malt yeast agar; 30° C., 72 hours for fungi; read-out: Minimum Inhibitory Concentration (MIC), Tv
Description: (§1) The minimum inhibitory concentration (MIC) for the compounds listed in Table I is determined for 9 bacteria, using nutrient agar; and 7 yeast and fungi, using malt yeast agar. A one percent solution of the test compound is prepared in a mixture of acetone and water.
(§2) Malt yeast agar is prepared by adding 3 g yeast extract and 45 g malt agar per liter of deionized water. The specific agar is dispensed in 30 mL aliquots into 25×200 mm test tubes, capped and autoclaved for 15 minutes at 115° C.
(§3) The test tubes containing the malt yeast agar and the nutrient agar are cooled in a water bath until the temperature of the agar is 48° C. Then, an appropriate amount of the one percent solution of the test compound is added (except in the controls where no compound is added) to the respective test tubes so that the final concentrations are zero (0), 1.0, 2.5, 5, 10, 25, 50, 100, 250 and 500 parts per million of the test compound in each of the respective type of agar. The contents of each of the test tubes are then transferred to separate petri plates. After drying for 24 hours, the petri plates containing nutrient agar are inoculated with bacteria and those containing malt yeast agar are inoculated with yeast and fungi.
(§4) The inoculation with the yeast and fungi is accomplished as follows. Cultures of yeast and fungi are incubated for seven days on malt yeast agar at 30° C. These cultures are used to prepare suspensions by the following procedure. A suspension of each organism is prepared by adding 10 mL of sterile saline and 10 microliters of octylphenoxy polyethoxy ethanol to the agar slant of yeast or fungi. The sterile saline/octylphenoxy polyethoxy ethanol solution is then agitated with a sterile swab to suspend the microorganism grown on the slant. Each resulting suspension is diluted into sterile saline (1 part suspension: 9 parts sterile saline). Aliquots of these dilutions are placed in individual wells of Steer's Replicator and petri plates inoculated as previously described. The petri plates are incubated at 30° C. and read after 48 hours for yeast and 72 hours for fungi.
(§5) Table II list the bacteria, yeast and fungi used in the MIC test described above along with their respective American Type Culture Collection (ATCC) identification numbers.

[2] = tested on: Salmonella choleraesuis; test: MIC for Salmonella choleraesuis, nutrient agar; type: cell-based, Salmonella choleraesuis ATCC 10708; conditions: Salmonella enterica, 30° C., 48 hours, read-out: Minimum Inhibitory Concentration (MIC), SC
Description: as §1
(§6) Nutrient agar is prepared at pH 6.8, representing a neutral medium, and at pH 8.2, representing an alkaline medium. The nutrient agars are prepared by adding 23 g of nutrient agar to one-liter of deionized water. In addition, the alkaline medium is prepared by adjusting a 0.04M solution of N-[tris-(hydroxymethyl)methyl]-glycine buffered deionized water with concentrated sodium hydroxide to a pH of 8.5.
as §3
(§7) The inoculation with bacteria is accomplished by using the following procedure. Twenty-four hour-cultures of each of the bacteria are prepared by incubating the respective bacteria in tubes containing nutrient broth for 24 hours at 30° C. in a shaker. Dilutions of each of the 24 hour-cultures are made so that nine separate suspensions (one for each of the nine test bacteria) are made, each containing 10^8 colony forming units (CFU) per mL of suspension of a particular bacteria. Aliquots of 0.3 mL of each of the bacterial suspensions are used to fill the individual wells of Steer's Replicator. For each microbial suspension, 0.3 mL was used to fill three wells (i.e., three wells of 0.3 mL each) so that for the nine different bacteria, 27 wells are filled. The Steer's Replicator is then used to inoculate both the neutral and alkaline pH nutrient agar petri plates.
(§8) The inoculated petri plates are incubated at 30° C. for 48 hours and then read to determine if the test compound which is incorporated into the agar prevented growth of the respective bacteria.
as §5

[3] = tested on: Proteus vulgaris (Pv); test: MIC for Proteus vulgaris, nutrient agar; type: cell-based, Proteus vulgaris ATCC 881; conditions: 30° C., 48 hours, read-out: Minimum Inhibitory Concentration (MIC), Pv
Description: as §1, §6, §3, §7, §8, §5

[4] = tested on: Aspergillus niger (An); test: MIC for Aspergillus niger, malt yeast agar; type: cell-based, Aspergillus niger ATCC 16404; conditions: malt yeast agar; 30° C., 72 hours for fungi; read-out: Minimum Inhibitory Concentration (MIC), An
Description: as §1, §2, §3, §4, §5

[5] = tested on: Bacillus subtilis (Bs); test: MIC for Bacillus subtilis, nutrient agar; type: cell-based, Bacillus subtilis ATCC 8473; conditions: 30° C., 48 hours, read-out: Minimum Inhibitory Concentration (MIC), Bs
Description: as §1, §6, §3, §7, §8, §5

[6] = tested on: Escherichia coli (Ec); test: MIC for Escherichia coli, nutrient agar; type: cell-based, Escherichia coli ATCC 11229; conditions: 30° C., 48 hours, read-out: Minimum Inhibitory Concentration (MIC), Ec
Description: as §1, §6, §3, §7, §8, §5

[7] = tested on: Pseudomonas aeruginosa (PRD-10); test: MIC for Pseudomonas aeruginosa PRD-10, nutrient agar; type: cell-based, Pseudomonas aeruginosa ATCC 15442; conditions: 30° C., 48 hours, read-out: Minimum Inhibitory Concentration (MIC), PRD
Description: as §1, §6, §3, §7, §8, §5

[8] = tested on: Staphylococcus aureus (Sa); test: MIC for Staphylococcus aureus, nutrient agar; type: cell-based, Staphylococcus aureus ATCC 6538; conditions: 30° C., 48 hours, read-out: Minimum Inhibitory Concentration (MIC), Sa
Description: as §1, §6, §3, §7, §8, §5

[9] = tested on: Pseudomonas aeruginosa (Pa); test: MIC for Pseudomonas aeruginosa, nutrient agar; type: cell-based, Pseudomonas aeruginosa ATCC 10145; conditions: 48 hours, read-out: Minimum Inhibitory Concentration (MIC), Pa
Description: as §1, §6, §3, §7, §8, §5

[10] = tested on: Klebsiella pneumonias (Kp); test: MIC for Klebsiella pneumonias, nutrient agar; type: cell-based, Klebsiella pneumonias ATCC 8308; conditions: 30° C., 48 hours, read-out: Minimum Inhibitory Concentration (MIC), Kp
Description: as §1, §6, §3, §7, §8, §5

[11] = tested on: Enterobacter aerogenes (Ea); test: MIC for Enterobacter aerogenes, nutrient agar; type: cell-based, Enterobacter aerogenes ATCC 13048; conditions: Klebsiella aerogenes, nutrient agar, 30° C., 48 hours, read-out: Minimum Inhibitory Concentration (MIC), Ea
Description: as §1, §6, §3, §7, §8, §5

[12] = tested on: Aureobasidium pullulan (Ap); test: MIC for Aureobasidium pullulan, malt yeast agar; type: cell-based, Aureobasidium pullulan ATCC 16622; conditions: malt yeast agar; 30° C.; 48 hours for yeast and 72 hours for fungi; read-out: Minimum Inhibitory Concentration (MIC), Ap
Description: as §1, §2, §3, §4, §5

[13] = tested on: Candida albicans (Ca); test: MIC for Candida albicans, malt yeast agar; type: cell-based, Candida albicans ATCC 10231; conditions: malt yeast agar; 30° C., 48 hours for yeast; read-out: Minimum Inhibitory Concentration (MIC), Ca
Description: as §1, §2, §3, §4, §5

[14] = tested on: Fusarium oxysporum (Fo); test: MIC for Fusarium oxysporum, malt yeast agar; type: cell-based, Fusarium oxysporum ATCC 48112; conditions: malt yeast agar; 30° C., 72 hours for fungi; read-out: Minimum Inhibitory Concentration (MIC), Fo
Description: as §1, §2, §3, §4, §5

[15] = tested on: Penicillium chrysogenum (Pc); test: MIC for Penicillium chrysogenum, malt yeast agar; type: cell-based, Penicillium chrysogenum ATCC 9480; conditions: malt yeast agar; 30° C., 72 hours for fungi; read-out: Minimum Inhibitory Concentration (MIC), PC
Description: as §1, §2, §3, §4, §5

[16] = tested on: Saccharomyces cerevisiae; test: MIC for Saccharomyces cerevisiae, malt yeast agar; type: cell-based, Saccharomyces cerevisiae ATCC 4105; conditions: malt yeast agar, 30° C., 48 hours for yeast, read-out: Minimum Inhibitory Concentration (MIC), Sc
Description: as §1, §2, §3, §4, §5

SMILES | MIC [1] | MIC ([2]; pH 6.8, nutrient agar) | MIC ([2]; pH 8.2, nutrient agar) | MIC ([3]; pH 6.8, nutrient agar) | MIC ([3]; pH 8.2, nutrient agar) | MIC [4] | MIC ([5]; pH 6.8, nutrient agar) | MIC ([5]; pH 8.2, nutrient agar) | MIC ([6]; pH 6.8, nutrient agar) | MIC ([6]; pH 8.2, nutrient agar) | MIC ([7]; pH 6.8, nutrient agar) | MIC ([7]; pH 8.2, nutrient agar) | MIC ([8]; pH 6.8, nutrient agar) | MIC ([8]; pH 8.2, nutrient agar) | MIC ([9]; pH 6.8, 30° C.) | MIC ([9]; pH 8.2, 30° C.) | MIC ([10]; pH 6.8, nutrient agar) | MIC ([10]; pH 8.2, nutrient agar) | MIC ([11]; pH 6.8) | MIC ([11]; pH 8.2) | also measured
N#CC1=C(C#N)Sc2c(cnn(-c3ccc([N+](=O)[O-])cc3)c2=O)S1 [H, 5,6-dihydro-6-(4-nitrophenyl)-5-oxo-1,4-dithiino-(2,3-d)-pyridazine-2,3-dicarbonitrile] | > 500 µg/mL | > 500 µg/mL | > 500 µg/mL | > 500 µg/mL | > 500 µg/mL | > 500 µg/mL | > 500 µg/mL | > 500 µg/mL | > 500 µg/mL | > 500 µg/mL | > 500 µg/mL | > 500 µg/mL | > 500 µg/mL | > 500 µg/mL | > 500 µg/mL | > 500 µg/mL | > 500 µg/mL | > 500 µg/mL | > 500 µg/mL | > 500 µg/mL | MIC [12]: > 500 µg/mL; MIC [13]: > 500 µg/mL; MIC [14]: > 500 µg/mL; MIC [15]: > 500 µg/mL; MIC [16]: > 500 µg/mL
N#CC1=C(C#N)Sc2c(cnn(Cc3ccccc3)c2=O)S1 [I, 5,6-dihydro-6-(phenylmethyl)-5-oxo-1,4-dithiino-(2,3-d)-pyridazine-2,3-dicarbonitrile] | 25 µg/mL (≈ 77.1 µM) | 250 µg/mL (≈ 771 µM) | > 500 µg/mL | 100 µg/mL (≈ 308 µM) | > 500 µg/mL | 25 µg/mL (≈ 77.1 µM) | < 10 µg/mL | 100 µg/mL (≈ 308 µM) | > 500 µg/mL | > 500 µg/mL | > 500 µg/mL | > 500 µg/mL | 50 µg/mL (≈ 154 µM) | > 500 µg/mL | 250 µg/mL (≈ 771 µM) | > 500 µg/mL | 100 µg/mL (≈ 308 µM) | > 500 µg/mL | > 500 µg/mL | > 500 µg/mL | MIC [12]: < 10 µg/mL; MIC [13]: < 10 µg/mL; MIC [14]: < 10 µg/mL; MIC [15]: 25 µg/mL (≈ 77.1 µM); MIC [16]: < 10 µg/mL
N#CC1=C(C#N)Sc2c(cnn(Cc3ccc(Cl)cc3)c2=O)S1 [J, 5,6-dihydro-6-((4-chlorophenyl)methyl)-5-oxo-1,4-dithiino-(2,3-d)-pyridazine-2,3-dicarbonitrile] | 25 µg/mL (≈ 69.7 µM) | > 500 µg/mL | > 500 µg/mL | 250 µg/mL (≈ 697 µM) | > 500 µg/mL | < 10 µg/mL | < 10 µg/mL | 50 µg/mL (≈ 139 µM) | 100 µg/mL (≈ 279 µM) | > 500 µg/mL | > 500 µg/mL | > 500 µg/mL | 25 µg/mL (≈ 69.7 µM) | 100 µg/mL (≈ 279 µM) | > 500 µg/mL | > 500 µg/mL | > 500 µg/mL | > 500 µg/mL | > 500 µg/mL | > 500 µg/mL | MIC [12]: < 10 µg/mL; MIC [13]: < 10 µg/mL; MIC [14]: < 10 µg/mL; MIC [15]: < 10 µg/mL; MIC [16]: < 10 µg/mL
Cc1ccc(Cn2ncc3c(c2=O)SC(C#N)=C(C#N)S3)cc1 [K, 5,6-dihydro-6-((4-methylphenyl)methyl)-5-oxo-1,4-dithiino-(2,3-d)-pyridazine-2,3-dicarbonitrile] | 25 µg/mL (≈ 73.9 µM) | > 500 µg/mL | > 500 µg/mL | 500 µg/mL (≈ 1480 µM) | > 500 µg/mL | 25 µg/mL (≈ 73.9 µM) | < 10 µg/mL | 100 µg/mL (≈ 295 µM) | > 500 µg/mL | > 500 µg/mL | > 500 µg/mL | > 500 µg/mL | > 500 µg/mL | > 500 µg/mL | > 500 µg/mL | > 500 µg/mL | > 500 µg/mL | > 500 µg/mL | > 500 µg/mL | > 500 µg/mL | MIC [12]: < 10 µg/mL; MIC [13]: 25 µg/mL (≈ 73.9 µM); MIC [14]: 25 µg/mL (≈ 73.9 µM); MIC [15]: 25 µg/mL (≈ 73.9 µM); MIC [16]: 25 µg/mL (≈ 73.9 µM)
